Test results: the supplement of paper PMC10307832

How the values were obtained:
Assay in all cases: relative viability (nuclei count vs DMSO), 5 days (fraction); higher = more cells survive
RERF-LC-KJ = system: RERF-LC-KJ
Method in brief: (§1)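 A single step with final 0.05% Triton X-100, 1% formaldehyde and 1 ug/ml Hoechst fixed the cells and stained nuclei 5 days after treatment. Lung cancer cell lines in 1536-well plates had been treated by pin tool the day after seeding with one drug alone or a fixed anchor-drug dose plus five library-drug doses (not always all listed) in √10 steps, and nuclei were counted on 4× images. Relative viability is the ratio of nuclei in treated wells to nuclei in vehicle wells, taken as the median of duplicate plates.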

NCI-H1355 = system: NCI-H1355
Method in brief: as §1

NCI-H1563 = system: NCI-H1563
Method in brief: as §1

NCI-H2228 = system: NCI-H2228
Method in brief: as §1

LCLC-97TM1 = system: LCLC-97TM1
Method in brief: as §1

NCI-H1734 = system: NCI-H1734
Method in brief: as §1

NCI-H661 = system: NCI-H661
Method in brief: as §1

PC-14 = system: PC-14
Method in brief: as §1

NCI-H520 = system: NCI-H520
Method in brief: as §1

NCI-H1975 = system: NCI-H1975
Method in brief: as §1

HCC-827 = system: HCC-827
Method in brief: as §1

EKVX = system: EKVX
Method in brief: as §1

PC-3 [JPC-3] = system: PC-3 [JPC-3]
Method in brief: as §1

NCI-H322M = system: NCI-H322M
Method in brief: as §1

HCC-15 = system: HCC-15
Method in brief: as §1

CAL-12T = system: CAL-12T
Method in brief: as §1

NCI-H1650 = system: NCI-H1650
Method in brief: as §1

NCI-H1755 = system: NCI-H1755
Method in brief: as §1

NCI-H2405 = system: NCI-H2405
Method in brief: as §1

H3255 = system: H3255
Method in brief: as §1

Question: For `O=c1cc(N2CCOCC2)oc2c(-c3cccc4c3sc3ccccc34)cccc12` + CC(C)C[C@H](NC(=O)[C@H](Cc1ccccc1)NC(=O)c1cnccn1)B(O)O [Bortezomib] (partner 0.002 µM), which relative viability (RERF-LC-KJ; first compound 0.01 µM) is on record?
Answer: 1.1

Question: And the relative viability (RERF-LC-KJ; first compound 0.03162 µM)?
Answer: 1.12

Question: And the relative viability (RERF-LC-KJ; first compound 0.1 µM)?
Answer: 1.13

Question: What about the relative viability (RERF-LC-KJ; first compound 0.3162 µM) of the same compound?
Answer: 1.22

Question: And the relative viability (RERF-LC-KJ; first compound 1 µM)?
Answer: 1.09

Question: What about the relative viability (NCI-H1355; first compound 0.01 µM) of the same compound?
Answer: 1.26

Question: What about the relative viability (NCI-H1355; first compound 0.03162 µM) of the same compound?
Answer: 1.15

Question: And the relative viability (NCI-H1355; first compound 0.3162 µM)?
Answer: 1.19

Question: And the relative viability (NCI-H1355; first compound 1 µM)?
Answer: 1.25

Question: And the relative viability (NCI-H1563; first compound 0.01 µM)?
Answer: 1

Question: What about the relative viability (NCI-H1563; first compound 0.03162 µM) of the same compound?
Answer: 0.809

Question: And the relative viability (NCI-H1563; first compound 0.1 µM)?
Answer: 0.9

Question: What about the relative viability (NCI-H1563; first compound 0.3162 µM) of the same compound?
Answer: 0.734

Question: What about the relative viability (NCI-H1563; first compound 1 µM) of the same compound?
Answer: 0.762

Question: And the relative viability (NCI-H2228; first compound 0.03162 µM)?
Answer: 0.794

Question: And the relative viability (NCI-H2228; first compound 0.1 µM)?
Answer: 0.926

Question: And the relative viability (NCI-H2228; first compound 0.3162 µM)?
Answer: 1.33

Question: And the relative viability (NCI-H2228; first compound 1 µM)?
Answer: 1.14

Question: What about the relative viability (LCLC-97TM1; first compound 0.01 µM) of the same compound?
Answer: 0.678

Question: And the relative viability (LCLC-97TM1; first compound 0.03162 µM)?
Answer: 0.535

Question: And the relative viability (LCLC-97TM1; first compound 0.1 µM)?
Answer: 0.473

Question: And the relative viability (LCLC-97TM1; first compound 0.3162 µM)?
Answer: 0.751

Question: And the relative viability (LCLC-97TM1; first compound 1 µM)?
Answer: 0.406

Question: And the relative viability (NCI-H1734; first compound 0.01 µM)?
Answer: 0.92

Question: And the relative viability (NCI-H1734; first compound 0.03162 µM)?
Answer: 0.808

Question: And the relative viability (NCI-H1734; first compound 0.1 µM)?
Answer: 1.01

Question: And the relative viability (NCI-H1734; first compound 0.3162 µM)?
Answer: 0.938

Question: And the relative viability (NCI-H1734; first compound 1 µM)?
Answer: 0.899

Question: What about the relative viability (NCI-H661; first compound 0.01 µM) of the same compound?
Answer: 0.681

Question: And the relative viability (NCI-H661; first compound 0.03162 µM)?
Answer: 0.89

Question: What about the relative viability (NCI-H661; first compound 0.1 µM) of the same compound?
Answer: 0.752

Question: What about the relative viability (NCI-H661; first compound 0.3162 µM) of the same compound?
Answer: 0.714

Question: And the relative viability (NCI-H661; first compound 1 µM)?
Answer: 0.756

Question: What about the relative viability (PC-14; first compound 0.01 µM) of the same compound?
Answer: 0.954

Question: What about the relative viability (PC-14; first compound 0.03162 µM) of the same compound?
Answer: 0.763

Question: What about the relative viability (PC-14; first compound 0.1 µM) of the same compound?
Answer: 0.868

Question: And the relative viability (PC-14; first compound 0.3162 µM)?
Answer: 0.772

Question: And the relative viability (PC-14; first compound 1 µM)?
Answer: 0.864

Question: What about the relative viability (NCI-H520; first compound 0.01 µM) of the same compound?
Answer: 0.66

Question: What about the relative viability (NCI-H520; first compound 0.03162 µM) of the same compound?
Answer: 0.446

Question: And the relative viability (NCI-H520; first compound 0.1 µM)?
Answer: 0.472

Question: What about the relative viability (NCI-H520; first compound 0.3162 µM) of the same compound?
Answer: 0.64

Question: And the relative viability (NCI-H520; first compound 1 µM)?
Answer: 0.752

Question: What about the relative viability (NCI-H1975; first compound 0.01 µM) of the same compound?
Answer: 0.384

Question: And the relative viability (NCI-H1975; first compound 0.03162 µM)?
Answer: 0.387

Question: And the relative viability (NCI-H1975; first compound 0.1 µM)?
Answer: 0.479

Question: And the relative viability (NCI-H1975; first compound 0.3162 µM)?
Answer: 0.349

Question: What about the relative viability (NCI-H1975; first compound 1 µM) of the same compound?
Answer: 0.372

Question: And the relative viability (HCC-827; first compound 0.01 µM)?
Answer: 1.02

Question: And the relative viability (HCC-827; first compound 0.03162 µM)?
Answer: 0.976

Question: And the relative viability (HCC-827; first compound 0.1 µM)?
Answer: 1.04

Question: And the relative viability (HCC-827; first compound 0.3162 µM)?
Answer: 1.06

Question: What about the relative viability (HCC-827; first compound 1 µM) of the same compound?
Answer: 1.02

Question: What about the relative viability (EKVX; first compound 0.01 µM) of the same compound?
Answer: 1.03

Question: And the relative viability (EKVX; first compound 0.03162 µM)?
Answer: 1.09

Question: And the relative viability (EKVX; first compound 0.1 µM)?
Answer: 1.02

Question: What about the relative viability (EKVX; first compound 0.3162 µM) of the same compound?
Answer: 1.11

Question: And the relative viability (EKVX; first compound 1 µM)?
Answer: 1.05

Question: And the relative viability (PC-3 [JPC-3]; first compound 0.01 µM)?
Answer: 0.824

Question: What about the relative viability (PC-3 [JPC-3]; first compound 0.03162 µM) of the same compound?
Answer: 0.744

Question: What about the relative viability (PC-3 [JPC-3]; first compound 0.1 µM) of the same compound?
Answer: 0.745

Question: And the relative viability (PC-3 [JPC-3]; first compound 0.3162 µM)?
Answer: 0.749

Question: What about the relative viability (PC-3 [JPC-3]; first compound 1 µM) of the same compound?
Answer: 0.862

Question: And the relative viability (NCI-H322M; first compound 0.01 µM)?
Answer: 1.24

Question: And the relative viability (NCI-H322M; first compound 0.03162 µM)?
Answer: 1.39

Question: And the relative viability (NCI-H322M; first compound 0.3162 µM)?
Answer: 1.19

Question: What about the relative viability (NCI-H322M; first compound 1 µM) of the same compound?
Answer: 1.03

Question: And the relative viability (HCC-15; first compound 0.01 µM)?
Answer: 0.948

Question: And the relative viability (HCC-15; first compound 0.03162 µM)?
Answer: 1.06

Question: What about the relative viability (HCC-15; first compound 0.1 µM) of the same compound?
Answer: 1.12

Question: And the relative viability (HCC-15; first compound 0.3162 µM)?
Answer: 0.948

Question: And the relative viability (HCC-15; first compound 1 µM)?
Answer: 1.04

Question: What about the relative viability (CAL-12T; first compound 0.01 µM) of the same compound?
Answer: 0.857

Question: And the relative viability (CAL-12T; first compound 0.1 µM)?
Answer: 0.985

Question: And the relative viability (CAL-12T; first compound 0.3162 µM)?
Answer: 1.01

Question: What about the relative viability (CAL-12T; first compound 1 µM) of the same compound?
Answer: 0.925

Question: What about the relative viability (NCI-H1650; first compound 0.03162 µM) of the same compound?
Answer: 0.243

Question: And the relative viability (NCI-H1650; first compound 0.1 µM)?
Answer: 0.193

Question: What about the relative viability (NCI-H1650; first compound 0.3162 µM) of the same compound?
Answer: 0.219

Question: And the relative viability (NCI-H1650; first compound 1 µM)?
Answer: 0.175

Question: And the relative viability (NCI-H1755; first compound 0.01 µM)?
Answer: 1.02

Question: What about the relative viability (NCI-H1755; first compound 0.03162 µM) of the same compound?
Answer: 0.873

Question: And the relative viability (NCI-H1755; first compound 0.1 µM)?
Answer: 0.959

Question: What about the relative viability (NCI-H1755; first compound 0.3162 µM) of the same compound?
Answer: 1.03

Question: And the relative viability (NCI-H1755; first compound 1 µM)?
Answer: 0.977

Question: And the relative viability (NCI-H2405; first compound 0.01 µM)?
Answer: 1.01

Question: What about the relative viability (NCI-H2405; first compound 0.03162 µM) of the same compound?
Answer: 0.941

Question: What about the relative viability (NCI-H2405; first compound 0.1 µM) of the same compound?
Answer: 1.03

Question: And the relative viability (NCI-H2405; first compound 0.3162 µM)?
Answer: 0.987

Question: What about the relative viability (NCI-H2405; first compound 1 µM) of the same compound?
Answer: 0.988

Question: And the relative viability (H3255; first compound 0.01 µM)?
Answer: 0.696

Question: What about the relative viability (H3255; first compound 0.03162 µM) of the same compound?
Answer: 0.806

Question: What about the relative viability (H3255; first compound 0.1 µM) of the same compound?
Answer: 0.761

Question: What about the relative viability (H3255; first compound 0.3162 µM) of the same compound?
Answer: 0.854

Question: And the relative viability (H3255; first compound 1 µM)?
Answer: 0.604
